Source: US9795551B2, “Tetrapeptides and a method of use as an antioxidant” (L'OREAL, priority 2014, dated 2017)

Tests used:
[1] = HORAC hydroxyl radical absorbance capacity (USTM 190), in tubo
Method: (§1) In the screening standard testing for oxygen radical absorbance capacity (ORAC) and hydroxyl radical absorbance capacity (HORAC) were conducted with the test polypeptides. Testing was conducted according to USTM 190 (HORAC) and USTM 192 (ORAC).
(§2) The peptides were tested in tubo for their antioxidant properties and tested against reference/known antioxidants. The evaluation of the antioxidant properties were conducted by determination of the ORAC (USTM 192) and HORAC (USTM 190) test methods. The results are listed in Table I for the peptides of the invention and for the conventionally known antioxidants vitamin C and Carnosine.

[2] = ORAC oxygen radical absorbance capacity (USTM 192), in tubo
Method: as §1, §2

Row | Molecule | HORAC/hydroxyl [1] | ORAC/peroxyl [2] [μmol GAE/g]
1 | WRYR [RED23] | 2089 μmol GAE/g | 4091
2 | Ac-wRyR-NH2 [RED27] | 735 μmol GAE/g | 5342
3 | O=C1O[C@H]([C@@H](O)CO)C(O)=C1O [Vitamin C, reference compound] | 0 μmol GAE/g | 4456
4 | RyR-NH2 [RED32] | 230 μmol GAE/g | 3385
5 | WrYR-NH2 [RED20] | 1666 μmol GAE/g | 4448
6 | WRyR-NH2 [RED21] | 2472 μmol GAE/g | 4816
7 | NCCC(=O)N[C@@H](Cc1c[nH]cn1)C(=O)O [Carnosine, β-alanyl-histidine, reference compound] | 2099 μmol GAE/g | 354
8 | RwRyR-NH2 [RED26] | No capacity | 4461
9 | WRYr-NH2 [RED19] | 1457 μmol GAE/g | 4350
10 | wRYR-NH2 [RED24] | 2225 μmol GAE/g | 4077
11 | WRYR-NH2 [RED6] | 1548 μmol GAE/g | 4488
12 | WrYr-NH2 [RED18] | 2982 μmol GAE/g | 4758
13 | wRyRw-NH2 [RED29] | No capacity | 5512
14 | wRyR-NH2 [RED22] | 1686 μmol GAE/g | 5383
15 | wRyRy-NH2 [RED28] | No capacity | 5216
16 | wRwR-NH2 [RED31] | 1189 μmol GAE/g | 4652
17 | WKYK-NH2 [RED25] | 2476 μmol GAE/g | 4168
